Patent US20250049926A1, “PHARMACEUTICAL COMPOSITIONS COMPRISING MODIFIED BETACYCLODEXTRINS” (priority 2021, published 2025)

Assay: Formulation stability with SBE-beta-CD (assay and impurities by HPLC, stressed storage)
Type: physicochemical
Procedure: 500 mL batches of each formulation (target pH 4.0 and pH 5.5) are prepared according to the recipe in Table 2 below. The vials used were 50 mL 20 mm Crown, type I, Vial (Gerresheimer), part number 80018303030. The stoppers used were 20 mm S10-F451 Stopper 4432/50 Gray, (Flurotec™ On Plug Only) B2-40 Coating Westar RS part number 19700021.
Each formulation is filtered with a 0.22 μm nylon syringe filter. Vials are filled with 10 mL of formulation, stoppered, sealed and placed at 40° C./75% relative humidity (RH) or at 60° C. (uncontrolled humidity) for up to 14 days. Each vial is placed inverted so that maximum stopper contact with the solution during the stability conditions can be achieved. At each time-point, vials from both conditions and formulations are pulled and analyzed for assay and impurities.
The assay and impurities as measured using the same HPLC method as used for assessing solubility.

[1] = Formulation pH 4.0 (2 mg/mL, SBE-beta-CD 40 mg/mL), 40° C./75% RH, time zero, pH exp 4.1
[2] = Formulation pH 4.0, 40° C./75% RH, Day 1, pH exp 4.1
[3] = Formulation pH 4.0, 40° C./75% RH, Day 3, pH exp 4.0
[4] = Formulation pH 4.0, 40° C./75% RH, Day 7, pH exp 4.1
[5] = Formulation pH 4.0, 40° C./75% RH, Day 14, pH exp 4.1
[6] = Formulation pH 4.0, 60° C., Day 1, pH exp 4.1
[7] = Formulation pH 4.0, 60° C., Day 3, pH exp 4.1
[8] = Formulation pH 4.0, 60° C., Day 7, pH exp 4.1
[9] = Formulation pH 4.0, 60° C., Day 14, pH exp 4.1
[10] = Formulation pH 4.0, 60° C., time zero, pH exp 4.1
[11] = Formulation pH 5.5 (2 mg/mL, SBE-beta-CD 40 mg/mL), 40° C./75% RH, time zero, pH exp 5.6
[12] = Formulation pH 5.5, 40° C./75% RH, Day 1, pH exp 5.6
[13] = Formulation pH 5.5, 40° C./75% RH, Day 3, pH exp 5.6
[14] = Formulation pH 5.5, 40° C./75% RH, Day 7, pH exp 5.7
[15] = Formulation pH 5.5, 40° C./75% RH, Day 14, pH exp 5.6
[16] = Formulation pH 5.5, 60° C., Day 1, pH exp 5.6
[17] = Formulation pH 5.5, 60° C., Day 3, pH exp 5.6
[18] = Formulation pH 5.5, 60° C., Day 7, pH exp 5.7
[19] = Formulation pH 5.5, 60° C., Day 14, pH exp 5.7
[20] = Formulation pH 5.5, 60° C., time zero, pH exp 5.6

stability of formulation with SBE-beta-CD (60° C. stressed conditions, formulation at pH 5.5 compared to pH 4.0): lower impurities and lower loss of assay
Assay (% of theoretical value of compound of formula (I)) [1]: 96.8%
Total impurities [1]: 1.1 % area
Assay (% of theoretical value of compound of formula (I)) [2]: 98.1%
Total impurities [2]: 1.1 % area
Assay (% of theoretical value of compound of formula (I)) [3]: 98.7%
Total impurities [3]: 1.3 % area
Assay (% of theoretical value of compound of formula (I)) [4]: 103.1%
Total impurities [4]: 1.3 % area
Assay (% of theoretical value of compound of formula (I)) [5]: 97.7%
Total impurities [5]: 1.4 % area
Assay (% of theoretical value of compound of formula (I)) [6]: 97.9%
Total impurities [6]: 1.4 % area
Assay (% of theoretical value of compound of formula (I)) [7]: 98.3%
Total impurities [7]: 2.0 % area
Assay (% of theoretical value of compound of formula (I)) [8]: 97.9%
Total impurities [8]: 3.4 % area
Assay (% of theoretical value of compound of formula (I)) [9]: 87.0%
Total impurities [9]: 4.7 % area
Assay (% of theoretical value of compound of formula (I)) [10]: 96.8%
Total impurities [10]: 1.1 % area
Assay (% of theoretical value of compound of formula (I)) [11]: 99.0%
Total impurities [11]: 1.1 % area
Assay (% of theoretical value of compound of formula (I)) [12]: 97.9%
Total impurities [12]: 1.2 % area
Assay (% of theoretical value of compound of formula (I)) [13]: 100.6%
Total impurities [13]: 1.3 % area
Assay (% of theoretical value of compound of formula (I)) [14]: 100.1%
Total impurities [14]: 1.2 % area
Assay (% of theoretical value of compound of formula (I)) [15]: 94.7%
Total impurities [15]: 1.3 % area
Assay (% of theoretical value of compound of formula (I)) [16]: 97.9%
Total impurities [16]: 1.3 % area
Assay (% of theoretical value of compound of formula (I)) [17]: 100.6%
Total impurities [17]: 1.5 % area
Assay (% of theoretical value of compound of formula (I)) [18]: 100.1%
Total impurities [18]: 2.0 % area
Assay (% of theoretical value of compound of formula (I)) [19]: 97.7%
Total impurities [19]: 3.0 % area
Assay (% of theoretical value of compound of formula (I)) [20]: 99.0%
Total impurities [20]: 1.1 % area
stability of formulation with SBE-beta-CD (pH 4.0 versus pH 5.5 at 40° C./75% RH stressed conditions): similar
Compound: COc1cc(N2CCNCC2)ccc1Nc1ncc2c(n1)-n1ccc(C(=O)Nc3c(C)cccc3C)c1CC2 [compound of formula (I)]
